How the values were obtained:
[1] = test system: Bacillus subtilis MTCC 121; test: Microtiter broth dilution MIC; assay type: cell-based; details: Bacillus subtilis MTCC 121, 24 h, 35° C.
Method: (§1) The antimicrobial activity of Microsan and M-EPS-Au-NP was determined using the microtiter broth dilution method [Kumar, C. G. and Mamidyala, S. K. (2011) Coll. Surf B: Biointerf. 84, 462-466]. Different bacterial pathogens (10^7 cfu ml^−1 cells) were inoculated in 100 μl of Muller-Hinton broth. Different concentrations of Microsan, M-EPS-Au-NP and Brevisan were added to each strain and incubated for 24 h at 35° C. After incubation, 40 μl of p-iodonitrotetrazolium (INT, Sigma) dye (0.02%, 20 mg INT dissolved in 100 ml of 40% dimethyl formamide was added to each well and incubated for 2 h. The reduction of p-iodonitrotetrazolium was spectroscopically measured at 450 nm using TRIAD multimode reader (Dynex Technologies, Inc., Chantilly, Va.) to determine the minimum inhibitory concentration (MIC) values. Commercially available surfactin (CAS 24730-31-2; Sigma-Aldrich) and laminarin (CAS No 9008-22-4; Sigma-Aldrich) used as positive controls were run in parallel for comparison. The MIC values of Microsan and M-EPS-Au-NP observed against the tested bacterial strains are shown in Table 3.

[2] = test system: Escherichia coli MTCC 739; test: Microtiter broth dilution MIC; assay type: cell-based; details: Escherichia coli MTCC 739, 24 h, 35° C.
Method: as §1

[3] = test system: Klebsiella planticola MTCC 530; test: Microtiter broth dilution MIC; assay type: cell-based; details: Klebsiella planticola MTCC 530, 24 h, 35° C.
Method: as §1

[4] = test system: Micrococcus luteus MTCC 2470; test: Microtiter broth dilution MIC; assay type: cell-based; details: Micrococcus luteus MTCC 2470, 24 h, 35° C.
Method: as §1

[5] = test system: Pseudomonas aeruginosa MTCC 2453; test: Microtiter broth dilution MIC; assay type: cell-based; details: Pseudomonas aeruginosa MTCC 2453, 24 h, 35° C.
Method: as §1

[6] = test system: Staphylococcus aureus MLS16 MTCC 2940; test: Microtiter broth dilution MIC; assay type: cell-based; details: Staphylococcus aureus MLS16 MTCC 2940, 24 h, 35° C.
Method: as §1

[7] = test system: Staphylococcus aureus MTCC 96; test: Microtiter broth dilution MIC; assay type: cell-based; details: Staphylococcus aureus MTCC 96, 24 h, 35° C.
Method: as §1

[8] = test system: intracellular reactive oxygen species (ROS) in RAW 264.7 macrophages; test: LPS-induced intracellular ROS (DCFH-DA) in RAW 264.7 macrophages; assay type: cell-based, mouse; details: 20 μg ml^−1; LPS 100 ng/ml 24 h; LPS alone 78.97%
Method: The inhibition of intracellular reactive oxygen species (ROS) by Brevisan, Microsan and M-EPS-Au-NP in RAW 264.7 macrophages was measured using the oxygen free radical acceptor 2,7,-dichlorofluorescein diacetate (DCFH-DA) [Wang, H., and Joseph J. A. (1999) Free. […] The RAW-264.7 macrophages (2×10^6 cells/well in 24-well plate) were treated with Brevisan, Microsan and M-EPS-Au-NP at various concentrations and then stimulated with 100 ng/ml LPS for 24 h using N-acetylcysteine (NAC, 10 mM) as a ROS inhibitor. The DCF formed by intracellular ROS was measured at 485 nm excitation and 520 nm emission wavelengths using a Hitachi spectrofluorimeter. The experiments were run in triplicates and reported as the percentage of intracellular ROS formed.

[9] = test system: nitric oxide (NO) in RAW 264.7 macrophages; test: LPS-stimulated nitric oxide (Griess reaction) in RAW 264.7 macrophages; assay type: cell-based, mouse; details: 20 μg ml^−1; LPS 100 ng ml^−1 24 h; LPS alone 66.87%
Method: After 24 h, 100 μl of culture supernatant was collected and mixed with 100 μl of Griess reagent in a 96-well plate and incubated for 15 min at room temperature. The optical density was spectroscopically measured at 540 nm using TRIAD multimode reader (Dynex Technologies, Inc., Chantilly, Va.). The experiments were run in triplicates and reported as the percentage of NO produced.

[10] = test system: IL-6 in RAW 264.7 cells; test: LPS-induced IL-6 ELISA in RAW 264.7 cells; assay type: cell-based, mouse; details: 50 μg ml^−1; LPS 100 ng ml^−1 24 h; LPS alone 190.9
Method: The effect of Brevisan, Microsan and M-EPS-Au-NP on the release of proinflammatory cytokines, TNF-α and IL-6, was measured using ELISA kits (Biosource International, Camarillo, Calif., USA). In independent experiments, the RAW-264.7 cells were treated with different concentrations (1, 10, 50 and 100 μg ml^−1) of Brevisan, Microsan and M-EPS-Au-NP and then stimulated with 100 ng ml^−1 of LPS. The supernatants were harvested after 24 h and the concentrations of TNF-α and IL-6 was measured using an ELISA kit according to the manufacturer's instructions.

[11] = Surface tension, Wilhelmy plate method; assay type: physicochemical; details: from 72
Method: The bacterial strains producing biosurfactants were isolated from the petroleum-contaminated soil sample collected from Mupkal, Nizamabad, Andhra Pradesh, India (latitude 18.90° N and longitude 78.36° E). The soil sample was enriched by placing 1.0 g of soil sample in 100 ml of mineral salts medium supplemented with N-hexadecane (1%, v/v) as a sole carbon source for three weeks. The enriched sample was serially diluted and then plated on the mineral salts agar plates overlaid with N-hexadecane which acted as a sole carbon source. The colonies that appeared on the plates upon incubation at 37° C. for 72 h were purified for 2-3 times on nutrient agar plates. The isolated pure microorganisms were cultured in liquid mineral salts medium at 37° C. for 72 h. The cells were separated by centrifugation and the cell-free supernatant was measured for the reduction in surface tension values by Wilhelmy plate method using a Du-Nouy K100MK2 Processor Tensiometer (Krüss, Hamburg, Germany). The concentration series was generated automatically with a computer-controlled Dosimat (Metrohm AG, Switzerland). […] The critical micelle concentration (CMC) was measured by plotting the concentration of surfactant as a function of surface tension, and the CMC was taken as the point where the slope of the curve abruptly changed. […]

[12] = Interfacial tension, Du-Nouy ring method; assay type: physicochemical
Method: (§2) The surface tension of the purified Microsan from Microbacterium sp. strain BS-2 and Brevisan from Brevibacillus sp. strain BS-207 was measured by Wilhelmy plate method using a Du-Nouy K100MK2 Processor Tensiometer (Krüss, Hamburg, Germany) which reduced the surface tension of water from 72 to 31.2 mN m^−1. The interfacial tension value was measured by Du-Nouy ring method and it was determined as 25.7 mN m. The critical micelle concentration (CMC) was measured by plotting the concentration of EPS as a function of surface tension. The CMC is the point where the slope of the curve abruptly changed was determined as 75 mg l^−1. The emulsification index (EI24) was determined by the addition of 4 ml of culture supernatant to 6 ml of various hydrocarbons (N-Hexadecane, tridecane, hexane, toluene and xylene) and oils (mineral oil and soybean oil) and the mixtures were vortexed for 2 min and allowed to stand for 24 h. The emulsification index (EI24) values expressed as the percentage of height of emulsified layer to the height of total liquid column.

[13] = Emulsification index (EI24); assay type: physicochemical; details: 24 h
Method: as §2

**Q.** With “β-D-glucuronyl-(1-2)-D-mannosyl-(1-4)-D-glucose [Microsan]” as the substance, how does the “Minimum inhibitory concentration (MIC)” value [1] read?
**A.** 4.68 µg/mL

**Q.** What about the “Minimum inhibitory concentration (MIC)” value [2] of the same substance?
**A.** >300 µg/mL

**Q.** What about the “Minimum inhibitory concentration (MIC)” value [3] of the same substance?
**A.** 9.37 µg/mL

**Q.** And the “Minimum inhibitory concentration (MIC)” value [4]?
**A.** >300 µg/mL

**Q.** What about the “Minimum inhibitory concentration (MIC)” value [5] of the same substance?
**A.** >300 µg/mL

**Q.** What about the “Minimum inhibitory concentration (MIC)” value [6] of the same substance?
**A.** 4.68 µg/mL

**Q.** What about the “Minimum inhibitory concentration (MIC)” value [7] of the same substance?
**A.** 18.75 µg/mL

**Q.** What about the “LPS-induced ROS levels after treatment” value [8] of the same substance?
**A.** 55.71%

**Q.** And the “LPS-stimulated NO levels after treatment” value [9]?
**A.** 20.05%

**Q.** What about the “IL-6 production after treatment” value [10] of the same substance?
**A.** 90.01 µg/mL

**Q.** What about the “surface tension of water reduced to” value [11] of the same substance?
**A.** 31.2 mN m^−1

**Q.** What about the interfacial tension [12] of the same substance?
**A.** 25.7 mN m

**Q.** And the “emulsification index (EI24)” value ([13]; N-hexadecane)?
**A.** 67%

**Q.** What about the “emulsification index (EI24)” value ([13]; hexane) of the same substance?
**A.** 83.7%

**Q.** And the “emulsification index (EI24)” value ([13]; mineral oil)?
**A.** 71.9%

**Q.** And the “emulsification index (EI24)” value ([13]; soybean oil)?
**A.** 63%

**Q.** What about the “emulsification index (EI24)” value ([13]; toluene) of the same substance?
**A.** 74.9%

**Q.** And the “emulsification index (EI24)” value ([13]; tridecane)?
**A.** 77%

**Q.** What about the “emulsification index (EI24)” value ([13]; xylene) of the same substance?
**A.** 66.89%
